# Measurements reported in a melting point compilation (Tetko et al.; mined from patent text by program, amines drawn as free bases though some values may be those of a salt).
row,SMILES,melting point [°C]
1,Cc1nc2c(N)nc3ccccc3c2n1CCCS(C)(=O)=O,225 to 228
2,COc1cc(Br)cc([N+](=O)[O-])c1OCc1ccccc1,74 to 76
3,Nc1nc(-c2ccncc2)nc2c1c(Cl)nn2C1CCCC1,132 to 134
4,CS(=O)(=O)c1cc2[nH]c(=O)c(=O)n(C3CCCCC3)c2cc1[N+](=O)[O-],> 280
5,Cc1cc(C#N)nc(Oc2cc(C(F)(F)F)nn2C)c1,88
6,Cc1cn(C(c2ccccc2)(c2ccccc2)c2ccccc2)cn1,214 to 216
7,O=C(N[C@@H](Cc1ccccc1)[C@@H](O)[C@H](O)[C@H](Cc1ccccc1)NC(=O)OCc1ccccc1)OCc1ccccc1,215 to 216
8,COC(C)(CN(c1c(C)cccc1Cl)S(C)(=O)=O)OC,84
9,CCOC=CC(=O)Nc1ccc(-n2cnc(C)c2)cc1,214 to 216
10,COc1ccc(CNc2nc(Cl)c3ncn(Cc4ccc(OC)cc4)c3n2)cc1,161 to 164
11,COc1ccc(-c2cc3cc(OC)cc(CC#N)c3o2)cc1,149 to 150
12,Cn1c(=O)c(C#N)c(Cl)c2cc(F)ccc21,258
13,CCc1nnc2c(OC)nc3cc(Cl)ccc3n12,221 to 223
14,NC(=O)c1n[nH]c(S(=O)(=O)c2ccc(Br)cc2)n1,130 to 136
15,CCOC(=O)c1c(O)c2ccc(C)nc2n(Cc2ccccc2)c1=O,155 to 157
16,CC(C)C1Nc2ccc(S(=O)(=O)N3CCCCC3)cc2S(=O)(=O)N1 (stereo not given),237 to 239
17,C[C@@H](Nc1c(NCc2ccc(F)cc2)c(=O)c1=O)C(C)(C)C,289 to 291
18,CC(C)(C)OC(=O)N(CCCCCCN1C(=O)c2ccccc2C1=O)CCN(CCCCCCN1C(=O)c2ccccc2C1=O)C(=O)OC(C)(C)C,96
19,Cn1cnc2nc(-c3ccc(Cl)cn3)nn2c1=S,> 300
20,COc1cc(S(C)(=O)=O)ccc1-c1ccc(C#N)c(=O)[nH]1,280 to 282
21,COc1cc(CC(=O)NCC(=O)N(CCC(=O)O)Cc2ccc(OC)c(OC)c2)ccc1NC(=O)Nc1ccccc1C,172 to 174
22,CCCCOc1n[nH]c(=O)n1C,77
23,CC1(C)NC(=O)CN1C(=O)CNC(=O)CN1CC(O)CC1=O (stereo not given),227 to 229
24,O=S(=O)(NCCSc1cc(F)c(OCCO)c(F)c1)c1ccc(Cl)cc1,43.5 to 45
25,CC(=O)C1CCC2C3CCC4CC(O)(Cc5ccccc5)CCC4(C)C3CCC12C (stereo not given),133 to 141

row,SMILES,melting point [°C]
1,COC(=O)c1ccc(OCCCBr)cc1NC(=O)C=Cc1ccc(-c2ccccc2)cc1,142 to 145
2,O=C(O)c1ccc(CN2Cc3ccccc3Cc3ccccc32)cc1,198
3,Cc1cncn1-c1ccc(O)cc1,256
4,CC(C)CCC(Sc1ccccc1)c1c(O)cc(-c2ccccc2)oc1=O (stereo not given),144 to 145
5,CC(C)(Oc1ccc(C#N)cc1)C(O)Cc1ccncn1 (stereo not given),96 to 98
6,CCC(C)NCC(O)COc1ccc2c(=O)c(-c3ccccc3)c(-c3ccccc3)oc2c1 (stereo not given),139 to 140
7,Cc1cc2c(OCc3ccc(C#N)cc3)cccc2o1,84 to 85
8,COc1ccc(/C=C/c2nc3ccccc3c(=O)o2)cc1OC(C)=O,187 to 190
9,CC(C)OC(=S)SSCCSSC(=S)OC(C)C,66
10,CCCCc1nc2cc[nH]c(=O)c2n1Cc1ccc([N+](=O)[O-])cc1,193 to 194
11,CC(C)(C)NC1=NS(=O)(=O)c2ccc(Cl)cc2N1,291 to 294
12,CC1=NCN(c2csc(Br)c2)O1,72 to 73
13,O=C1Nc2ccc(C(F)(F)F)cc2C1c1ncnc2c1cnn2C1CCCCC1 (stereo not given),> 300
14,COc1ccc2c(c1)S(=O)(=O)c1c(cc(OC)c(OC(C)=O)c1Br)N2,258 to 260
15,Cn1nc(O)c(Cl)c1C(F)(F)F,136 to 140
16,CC(C)(C)OC(=O)N(CC=CCl)c1cc(OCc2ccccc2)c2ncccc2c1I,115 to 135
17,Cc1c(C)c(NCc2ccccc2)c2c(c1C)C(=O)C(C)(C)O2,108 to 109
18,CCCn1c(=O)c2[nH]c(-c3ccc(OCC(=O)O)cc3)nc2n(CCC)c1=O,214 to 216
19,CCCSC1(SCCC)CCC2C3CCC4=CC(=O)C=CC4(C)C3(F)C(O)CC21C (stereo not given),235 to 237
20,N#CN1CCC2(CC1)CN(c1ccccc1[N+](=O)[O-])c1ccccc12,148 to 150
21,"CC1CN(Cc2n[nH]c3ccccc23)CCN1c1ccccc1 (single isomer, unassigned; (+))",164 to 165
22,c1ccc2sc(=NCCN3CCOCC3)sc2c1,75 to 76
23,O=C1CC(c2cccc(-n3ccnc3)c2)=Nc2ccc(-c3ccc(OCc4ccccc4)nc3)cc2N1,225 to 231
24,CCCCCc1ccc(Oc2cccc(C=C3SC(=S)NC3=O)c2)cc1,125 to 127
25,CCOC(=O)c1c(SC)c(C#N)c(=O)n2ccccc12,128 to 129

row,SMILES,melting point [°C]
1,O=[N+]([O-])c1ccc(Oc2ccccc2Oc2ccc([N+](=O)[O-])c(O)c2)cc1O,178 to 180
2,NCc1ccsc1CC(=O)O,194 to 195
3,O=[N+]([O-])c1ccc(Nc2cccc(O)c2)cc1,158 to 160
4,Cn1cc(Br)cc(Nc2cc(C3CC3)n[nH]2)c1=O,203 to 204
5,O=C(O)c1cc(Cl)ccc1COc1ccccc1,149 to 155
6,Cc1occ(-c2ccccc2F)c1C(=O)Nc1cccc(CO)c1,163 to 164
7,Cc1ccc(C(=O)C(F)(F)S(=O)(=O)c2ccccc2)cc1,79 to 81
8,COc1c(C)c(N2CCN(c3ccc(OC(F)(F)F)cc3)CC2)c(C)c2c1OC(C)(C)C2,162 to 164
9,CCOC(=O)c1ncoc1-c1cc(OC)c(OC)c([N+](=O)[O-])c1,109 to 110
10,"CN1C(=O)CCC2(C)c3ccc(Sc4ccncc4)cc3CCC12 (single isomer, unassigned; (+))",157 to 158
11,CC(C)c1cccc(C(C)C)c1NC(=O)C(Cc1ccc(OCc2ccccc2)cc1)NC(=O)CC(C)(C)C (stereo not given),209 to 212
12,COc1ccc(S(=O)(=O)Nc2ccccc2NC(=O)c2cnccc2C)cc1,199 to 200
13,CSc1c(C(Cc2ccccc2)C(=O)O)cc(C)c2c3ccccc3n(Cc3ccccc3)c12 (stereo not given),199 to 200
14,O=C(O)c1cc(NCc2c(F)c(F)c(C(F)(F)F)c(F)c2F)ccc1O,179
15,CCc1cc(C(C)(C)c2ccc(C(C)(C)c3cc(CC)c(NC)c(CC)c3)cc2)cc(CC)c1NC,105 to 108
16,COC(=O)c1c(S(C)(=O)=O)ccc(C(=O)C2C(=O)CCCC2=O)c1Cl,160 to 162
17,CC(C)c1nc(-c2ncn3c2CN(C(=O)N2CCCC2)c2c(F)cccc2-3)no1,169 to 170
18,Nc1cc(C(=O)O)cc(N)c1O,205
19,O=C(O)c1ccc(C(=O)O)c2c(C(O)=Nc3ccccc3)ccc(C(=O)O)c12,> 300
20,CC(=O)c1ccc2c(c1)S(=O)(=O)c1ccccc1O2,163 to 165
21,Cn1cncc1C(O)(c1ccc2ncccc2c1)c1ccc2nc(Cl)nc(-c3cccc(Cl)c3)c2c1 (stereo not given),250
22,COc1c(C)c(N2CCN(c3ccc(F)cc3)CC2)c(C)c2c1OC(C)C2 (stereo not given),114 to 116
23,Cc1cc(-c2noc(N(C)C)n2)ccc1-c1ccc(C(=O)N2CCCc3cc4c(cc32)C2(CCN(C)CC2)CO4)cc1,118 to 120
24,Cc1oc(-c2ccccc2)nc1COc1ccc(C=O)cn1,116 to 117
25,CCCCCCCCOc1ccc(-c2cc(F)cc(F)c2F)cc1,31

row,SMILES,melting point [°C]
1,COc1ccc(C(Cc2ccncc2)c2ccc(C(N)=O)cc2)cc1OC1CCCC1 (stereo not given),180 to 182
2,COc1cc(-c2n[nH]c(SC)c2C)c(F)cc1Cl,95 to 100
3,CCCCCCCCCCCCCCOc1ccc(C(=O)O)cc1OCCCCCCCCCCCCCC,112 to 113
4,COC(=O)CCS(=O)(=O)c1ccc(C=C(C)c2ccc3c(c2)C(C)(C)CCC3(C)C)cc1,118 to 120
5,CC(C)n1cc(-c2ccc(NS(=O)(=O)c3ccccc3)cc2)c2c(N)ncnc21,238 to 240
6,O=C1CC(CCN2CCC(c3c[nH]c4ccccc34)CC2)c2ccccc2N1 (stereo not given),115 to 117
7,Cc1noc(NS(=O)(=O)c2ccccc2-c2ccc(-c3ncco3)cc2CN(C)C(=O)c2cc3ccccc3[nH]2)c1C,135 to 145
8,CC(C)(C)C(=O)N[Si](C)(C)C,101 to 106
9,COc1ccc2cccc(C(=O)CNC(C)=O)c2c1,122 to 124
10,c1ccc(NN2CCc3ccccc3C2)nc1,116 to 117
11,COC(=O)C(=O)c1c[nH]c2ccccc12,226 to 228
12,CC1=C(C(=O)OC(C)C)C(c2cccc([N+](=O)[O-])c2)C(C(=O)O)=NN1 (stereo not given),195
13,O=C(Nc1ccccc1)OCc1cn(-c2cc3cc(C(=O)O)c(=O)[nH]c3cc2C(F)(F)F)cn1,178 to 180
14,CC(C)P1(=O)NCc2ccccc21 (stereo not given),149 to 151
15,CCN1c2ncccc2C(=O)N(C)c2cccnc21,130 to 132
16,O=C(NCCCCN1CCC(c2cccc3ccccc23)CC1)c1ccc(NC(=O)c2ccc(Cl)cc2)cc1,264
17,Cc1cc(C(C)(C)C)cc(C=NO)c1O,107 to 108
18,CC(C)(C)OC(=O)CC(=O)c1cc2ccccc2cc1O,80 to 84
19,C=CCn1c(C)c(C)c2cnnc(OCc3ccc(C(F)(F)F)cc3)c21,95 to 96
20,Cc1nc2ccccc2n2cnc(-c3nc(C4CC4)no3)c12,188 to 189
21,CC(=O)Oc1ccc2scc(C(=O)O)c2c1,239 to 240
22,Cn1nc(-c2ccccc2)nc1-c1ccccc1CO,122
23,OCc1ccc(OCc2ccc(-c3ccccc3)cn2)cc1,159 to 160
24,CCC(C)(C)NC(=O)c1ccc(S(=O)(=O)Cl)c(OC)c1,104
25,O=C(CCc1ccccc1)Nc1c(O)cc(-c2ccccc2)oc1=O,191 to 193
